“Also recorded” adds a separate entry of the source.
Legend:
COI1-JAZ6 complex = target: T1, COI1-JAZ6 complex (Arabidopsis thaliana, UniProt O04197+Q9C9E3); assay: Competition binding with 100 nM 3H-coronatine; conditions: 100 nM 3H-COR, COI1-JAZ6 complex; read-out: Inhibition constant (Ki), competition with 3H-coronatine
T1 construct: Full-length Arabidopsis thaliana COI1 and ASK1 were co-expressed; Full-length JAZ substrate proteins were expressed as 6×His-fusion proteins in Escherichia coli; GST (cleaved yes); 6xHis; made in house; host or cells: Hi5 insect cells (COI1/ASK1); Escherichia coli (JAZ6)
T1 sequence (O04197 1-592): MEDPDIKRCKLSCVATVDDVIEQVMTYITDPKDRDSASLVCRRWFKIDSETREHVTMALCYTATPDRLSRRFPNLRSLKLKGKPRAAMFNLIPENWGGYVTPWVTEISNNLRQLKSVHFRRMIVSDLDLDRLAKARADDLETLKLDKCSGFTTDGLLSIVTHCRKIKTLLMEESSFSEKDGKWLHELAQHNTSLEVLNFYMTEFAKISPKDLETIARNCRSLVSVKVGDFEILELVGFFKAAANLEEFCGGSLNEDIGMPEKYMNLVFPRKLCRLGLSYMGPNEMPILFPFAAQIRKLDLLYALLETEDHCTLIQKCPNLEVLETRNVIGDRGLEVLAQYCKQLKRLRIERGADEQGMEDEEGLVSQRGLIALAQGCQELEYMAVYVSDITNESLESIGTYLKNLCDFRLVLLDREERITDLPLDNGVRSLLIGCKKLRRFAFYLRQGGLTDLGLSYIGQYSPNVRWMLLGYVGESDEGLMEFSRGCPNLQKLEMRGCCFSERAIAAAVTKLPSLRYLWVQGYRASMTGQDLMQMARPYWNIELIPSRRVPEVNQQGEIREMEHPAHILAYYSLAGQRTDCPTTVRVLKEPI
T1 sequence (Q39255 1-160 partner): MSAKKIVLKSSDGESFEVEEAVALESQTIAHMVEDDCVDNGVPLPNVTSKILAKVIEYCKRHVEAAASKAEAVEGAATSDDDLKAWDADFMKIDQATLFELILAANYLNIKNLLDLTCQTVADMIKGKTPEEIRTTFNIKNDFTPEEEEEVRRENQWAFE
T1 sequence (Q9C9E3 1-269): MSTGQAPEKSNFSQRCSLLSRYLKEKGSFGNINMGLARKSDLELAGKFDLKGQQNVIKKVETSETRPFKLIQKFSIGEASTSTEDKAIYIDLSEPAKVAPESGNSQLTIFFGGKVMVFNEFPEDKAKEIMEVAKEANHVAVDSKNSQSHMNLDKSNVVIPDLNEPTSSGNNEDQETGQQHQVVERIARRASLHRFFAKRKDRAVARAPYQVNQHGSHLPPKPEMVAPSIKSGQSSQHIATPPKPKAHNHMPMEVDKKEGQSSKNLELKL
From the text: (^3H)-labeled coronatine was synthesized by Amersham. Full-length Arabidopsis thaliana COI1 and ASK1 were co-expressed as a glutathione S-transferase (GST) fusion protein and an untagged protein, respectively, in Hi5 suspension insect cells. The COI1/ASK1 complex was isolated from the soluble cell lysate by glutathione affinity chromatography. After on-column tag cleavage by tobacco etch virus protease, the complex was further purified by anion exchange and gel filtration chromatography and concentrated by ultrafiltration to 12-18 mg ml^−1. Full-length JAZ substrate proteins were expressed as 6×His-fusion proteins in Escherichia coli and purified on Ni-NTA resin with subsequent dialysis into 20 mM Tris-HCl, pH 8.0, 200 mM NaCl, and 10% glycerol.
Radioligand binding was assayed on purified proteins, with 2 mg COI1/ASK1 complex and JAZ proteins at a 1:3 molar ratio. Reactions were prepared in […] final volume and in a binding buffer containing 20 mM Tris-HCl 200 mM NaCl, and 10% glycerol. Saturation binding experiments were conducted with serial dilutions of 3H-coronatine in binding buffer. Nonspecific binding was determined in the presence of […] coronatine. Competition binding experiments were conducted with serial dilutions of JA-Ile in the presence of 100 nM ^3H coronatine with nonspecific binding determined in the presence of […] coronatine. Total binding was determined in the presence of vehicle only. Two-point binding experiments were performed in the presence of 100 nM or 300 nM ^3H-coronatine with nonspecific binding determined in the presence of […] coronatine. Following incubation with mixing at 4° C., all samples were collected with a cell harvester (Brandel, Gaithersburg, Md.) on polyethyleneimine (Sigma)-treated filters. […] Saturation binding experiments were analyzed by nonlinear regression, competition binding experiments by nonlinear regression with Ki calculation as described previously (Cheng 1973), and concentration-response data by sigmoidal dose-response curve fitting, all using GraphPad Prism version 4.00 for MacOSX.

COI1 = target: T2, COI1 (Arabidopsis thaliana, UniProt O04197); assay: Ligand binding assay with synthetic JAZ peptides replacing recombinant JAZ1 (coronatine binding to COI1/ASK1); conditions: 300 nM coronatine
T2 construct: Full-length Arabidopsis thaliana COI1 and ASK1 were co-expressed; GST (cleaved yes); made in house; host or cells: Hi5 insect cells (COI1/ASK1); JAZ peptides synthetic
T2 sequence (O04197 1-592): T1 sequence (O04197 1-592)
T2 sequence (Q39255 1-160 partner): T1 sequence (Q39255 1-160 partner)
Method: (§1) Radioligand binding was assayed on purified proteins, with 2 mg COI1/ASK1 complex and JAZ proteins at a 1:3 molar ratio. Reactions were prepared in […] final volume and in a binding buffer containing 20 mM Tris-HCl 200 mM NaCl, and 10% glycerol. Saturation binding experiments were conducted with serial dilutions of 3H-coronatine in binding buffer. Nonspecific binding was determined in the presence of […] coronatine. Competition binding experiments were conducted with serial dilutions of JA-Ile in the presence of 100 nM ^3H coronatine with nonspecific binding determined in the presence of […] coronatine. Total binding was determined in the presence of vehicle only. Two-point binding experiments were performed in the presence of 100 nM or 300 nM ^3H-coronatine with nonspecific binding determined in the presence of […] coronatine. Following incubation with mixing at 4° C., all samples were collected with a cell harvester (Brandel, Gaithersburg, Md.) on polyethyleneimine (Sigma)-treated filters. Samples were incubated in liquid scintillation fluid for >1 hour before counting with a Packard Tri-Carb 2200 CA liquid scintillation analyzer (Packard Instrument Co.). Saturation binding experiments were analyzed by nonlinear regression, competition binding experiments by nonlinear regression with Ki calculation as described previously (Cheng 1973), and concentration-response data by sigmoidal dose-response curve fitting, all using GraphPad Prism version 4.00 for MacOSX.
Previous studies have shown that the highly conserved PY sequence at the C-terminal end of the Jas motif plays a role in JAZ localization and stability in vivo, but that the sequence was not necessary for ligand-dependent COI1-JAZ interaction. This was confirmed by an experiment showing that truncation of the PY motif in JAZ1 had little effect on in vitro ligand binding activity (FIG. 3). […]
Various derivatives of the JAZ1 degron sequence, as well as derivatives of the JAZ6 and JAZ7 degron sequences, were analyzed for their ability to bind COI1 with high affinity in the presence of coronatine.

COI1/JAZ1 co-receptor [1] = target: T3, COI1/JAZ1 co-receptor (Arabidopsis thaliana, UniProt O04197+Q9LMA8); assay: Ligand-binding based reconstitution assay (inositol phosphate rescue) with dialyzed COI1/ASK1 and JAZ1; conditions: for Effect of inositol phosphate on activity of the COI1/JAZ1 co-receptor (coronatine binding): dialyzed COI1, JAZ1, 1 μM inositol phosphate
T3 construct: Full-length Arabidopsis thaliana COI1 and ASK1 were co-expressed; Full-length JAZ substrate proteins were expressed as 6×His-fusion proteins in Escherichia coli; GST (cleaved yes); 6xHis; made in house; host or cells: Hi5 insect cells (COI1/ASK1); Escherichia coli (JAZ1)
T3 sequence (O04197 1-592): T1 sequence (O04197 1-592)
T3 sequence (Q39255 1-160 partner): T1 sequence (Q39255 1-160 partner)
T3 sequence (Q9LMA8 1-253): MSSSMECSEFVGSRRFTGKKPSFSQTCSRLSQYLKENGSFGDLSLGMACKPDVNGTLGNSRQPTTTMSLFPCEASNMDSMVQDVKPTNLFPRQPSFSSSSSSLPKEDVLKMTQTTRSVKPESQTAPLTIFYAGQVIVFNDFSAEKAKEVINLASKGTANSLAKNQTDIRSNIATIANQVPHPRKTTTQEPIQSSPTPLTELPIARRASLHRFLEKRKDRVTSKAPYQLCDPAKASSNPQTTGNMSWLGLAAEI
Method: as §1
To assess the functional role of Ins(1,2,4,5,6)P5 in the COI1/JAZ1 co-receptor, a protocol was developed for stripping the co-purified InsP5 from COI1 without denaturing the protein. Briefly, proteins were mixed with 10% glycerol and incubated in 2 M ammonium phosphate, 100 mM Bis-Tris propane, pH 7.0, 200 mM NaCl, and 10% glycerol at 4° C. for >24 hours with a minimum of 3× buffer changes at 100× sample volume. Samples were then transferred to 20 mM Tris-HCl, pH 8.0, 200 mM NaCl, and 10% glycerol at 4° C. for >24 hours with a minimum of three buffer changes at 100× sample volume. Inositol phosphate rescue experiments were conducted according to the radioligand binding assays described above in the presence of 300 nM ^3H-coronatine with nonspecific binding determined in the presence of 300 μM coronatine.
The resulting COI1/ASK1 complex was tested in a ligand-binding based reconstitution assay. […] From this reconstitution result, it was concluded that Ins(1,2,4,5,6)P5 binding is crucial for the jasmonate coreceptor to perceive the hormone with high sensitivity.

COI1/JAZ1 co-receptor [2] = target: T3, COI1/JAZ1 co-receptor; assay: as above; conditions: 100 nM 3H-coronatine, read-out: EC50, rescue of 3H-coronatine binding to dialyzed COI1/ASK1 in the presence of JAZ1

| Compound | Binding of peptide to COI1 in the presence of coronatine (COI1) | Effect of inositol phosphate on activity of the COI1/JAZ1 co-receptor (coronatine binding) (COI1/JAZ1 co-receptor [1]) | also measured |
| --- | --- | --- | --- |
| CCC=CC[C@H]1C(=O)CC[C@@H]1CC(=O)N[C@H](C(=O)O)[C@@H](C)CC [(3R,7R)-JA-Ile] |  |  | Ki (COI1-JAZ6 complex): 18000 ± 19000 nM |
| JAZ1 degron: RRASLHRFLEKRKDRVTSKAPY (R205-Y226 of JAZ1) (listed as Arabidopsis thaliana) | did not bind to COI1 with high affinity |  |  |
| JAZ1-extension +5+PY: ELPIARRASLHRFLEKRKDRVTSKAPY (listed as Arabidopsis thaliana) | significant binding |  |  |
| O=P(O)(O)OC1C(OP(=O)(O)O)C(OP(=O)(O)O)C(OP(=O)(O)O)C(OP(=O)(O)O)C1OP(=O)(O)O (stereo not drawn) [InsP6, inositol hexakisphosphate] |  | not favorable for activity; also recorded: significantly less efficacious |  |
| JAZ1 +4 extension: LPIARRASLHRFLEKRKDRV (listed as Arabidopsis thaliana) | much higher affinity |  |  |
| O=P(O)(O)OC1C(O)C(OP(=O)(O)O)C(OP(=O)(O)O)C(OP(=O)(O)O)C1OP(=O)(O)O (stereo not drawn) [Ins(1,2,4,5,6)P5, inositol-1,2,4,5,6-pentakisphosphate] |  | rescued the interaction in a dose-dependent manner | Effect of inositol phosphate on activity of the COI1/JAZ1 co-receptor (coronatine binding) (COI1/JAZ1 co-receptor [1]; listed as InsP5): rescues binding; Effect of exogenous inositol phosphate on untreated COI1/JAZ1 co-receptor activity (COI1/JAZ1 co-receptor [1]; untreated (not dialyzed) COI1, JAZ1, 1 μM): did not significantly change its activity; EC50 (COI1/JAZ1 co-receptor [2]): 27 nM |
| O=P(O)(O)O[C@@H]1[C@H](O)[C@H](O)[C@@H](OP(=O)(O)O)[C@H](OP(=O)(O)O)[C@H]1O [inositol-1,4,5-trisphosphate] |  | does not |  |
| O=P(O)(O)O[C@H]1[C@H](OP(=O)(O)O)[C@@H](OP(=O)(O)O)[C@@H](O)[C@@H](O)[C@@H]1OP(=O)(O)O [inositol-1,4,5,6-tetrakisphosphate] |  | supports the activity |  |
| CC/C=C\C[C@@H]1C(=O)CC[C@@H]1CC(=O)N[C@H](C(=O)O)[C@@H](C)CC [(3R,7S)-JA-Ile, (3R,7S)-jasmonyl-L-isoleucine] |  |  | Ki (COI1-JAZ6 complex): 1800 ± 600 nM |

From US9297017B2, “Methods and compositions for targeted protein degradation” (University of Washington, priority 2010, dated 2016)
